# Reference: PMC9241942 (Microbiology Spectrum, 2022)
# Assays:
# [1] = Fecal vancomycin levels in original clinical stool samples of healthy volunteers, HPLC-PDA at 205 nm; format: in vivo, human; details: for Vancomycin concn, Aliquot 3 / Vancomycin concn, Aliquot 2: original stool
# Experimental: (§1) An aliquot of stool and 1 mL of extraction solvent (acetonitrile and water, 10:90 [vol/vol], 0.1% TFA) was added into 2-mL centrifuge tube and shaken (Vortex-Genie 2 Shaker, Scientific Industries, USA) for 10 s, ultrasonicated for 5 min (Multool ultrasonic cleaner, Model: TH-030A), and centrifuged at 10,000 g for 3 min (Centrifuge 5804 R, Eppendorf). The supernatant was collected and diluted by 10-fold using the extraction solvent and was stored at −80°C prior to HPLC analysis.
# (§2) The mobile phase consisted of a mixture of acetonitrile and water, (10:90 [v:v], 0.1% TFA). The flow rate and the temperature of column oven were set at 0.3 mL/min and 40°C, respectively.
# (§3) Differences in concentrations were compared by RSD.
# [2] = Fecal vancomycin levels in lyophilized clinical stool samples, HPLC, with water correction; format: in vivo, human
# Experimental: as §1, §2, §3
# [3] = Vancomycin stability in clinical stool samples over time (inter-day); format: in vitro ADME, human; details: for Day 0, vancomycin concn: first assay; for Day 0, vancomycin concn / Day 48, vancomycin concn: Mean ± SD, identical aliquots n = 3, SD; for Day 48, vancomycin concn: second assay after storage
# Experimental: as §1, §2, §3
# [4] = Comparison with orthophosphoric acid-based extraction method (Berthoin et al. 2009), total fecal vancomycin by HPLC; format: in vivo, human
# Experimental: Briefly, six samples were chosen with two aliquots were prepared for each sample. The aliquots were mixed with 971 μL of water and 29 μL of 85% orthophosphoric acid according to the composition of orthophosphoric acid-based extraction solvent developed by Berthoin et al. (2009) ([17]).
# [5] = cited from earlier work
# Description: The goal of the human microbiome project (HMP) is to characterize the human microbiome and analyze its role in health and disease ([1]). The HMP has advanced science on the systems biology of the gut microbiome, the most diverse and abundant microbiome in the human body. By far, the largest contributor to immediate changes in the human gut microbiome are broad spectrum antimicrobials that are excreted via the gastrointestinal tract. To be able to properly study the effect of antimicrobials on the gut microbiome, pharmacokinetic studies using validated assays in the correct biologic matrix will ... || During the phase I clinical trial mentioned above, the pharmacokinetics of ibezapolstat was evaluated using a commercial laboratory. They required the entire stool in order to homogenize the sample for accurate pharmacokinetics results as the heterogeneity of antibiotics in stool samples has not been studied. This differs from blood, urine, or other matrices in which an almost constant supply is present. However, as bowl movements only occur once per day or less, use of an entire sample for pharmacokinetic analyses excludes other microbiome evaluations from that particular day or time-period. ...
# [6] = cited from earlier work; remark: listed apart in the source
# Description: The goal of the human microbiome project (HMP) is to characterize the human microbiome and analyze its role in health and disease ([1]). The HMP has advanced science on the systems biology of the gut microbiome, the most diverse and abundant microbiome in the human body. By far, the largest contributor to immediate changes in the human gut microbiome are broad spectrum antimicrobials that are excreted via the gastrointestinal tract. […] Moreover, the quantitative range of our new method ( ...
smiles,measurement,setting,value
CN[C@H](CC(C)C)C(=O)N[C@H]1C(=O)N[C@@H](CC(N)=O)C(=O)N[C@H]2C(=O)N[C@H]3C(=O)N[C@H](C(=O)N[C@H](C(=O)O)c4cc(O)cc(O)c4-c4cc3ccc4O)[C@H](O)c3ccc(c(Cl)c3)Oc3cc2cc(c3O[C@@H]2O[C@H](CO)[C@@H](O)[C@H](O)[C@H]2O[C@H]2C[C@](C)(N)[C@H](O)[C@H](C)O2)Oc2ccc(cc2Cl)[C@H]1O [vancomycin],persistence of vancomycin in stool after end of dosing (in words),"[1]; healthy volunteers, oral 125 mg 4 times daily for 10 days",persists for several days following the end of the 10-day dosing regimen
same,vancomycin concentration in the diluted fecal extract solution,"[1]; original clinical sample 9, fecal extract diluted by 10-fold, 205 nm",20.1 µg/mL
same,"Vancomycin concn, Aliquot 3","[1]; sample 5, subject H, day 5, oral 125 mg 4 times daily for 10 days, wet wt 33.0 mg",259 (33.0) μg/g
same,"Vancomycin concn, Aliquot 2","[1]; sample 5, subject H, day 5, oral 125 mg 4 times daily for 10 days, wet wt 52.9 mg",259 (52.9) μg/g
same,"Vancomycin concn, Aliquot 2","[1]; sample 6, subject E, day 8, oral 125 mg 4 times daily for 10 days, wet wt 40.7 mg",2033 (40.7) μg/g
same,"Vancomycin concn, Aliquot 3","[1]; sample 6, subject E, day 8, oral 125 mg 4 times daily for 10 days, wet wt 106.5 mg",1660 (106.5) μg/g
same,"Vancomycin concn, Aliquot 3","[1]; sample 7, subject F, day 8, oral 125 mg 4 times daily for 10 days, wet wt 48.1 mg",2057 (48.1) μg/g
same,"Vancomycin concn, Aliquot 2","[1]; sample 7, subject F, day 8, oral 125 mg 4 times daily for 10 days, wet wt 55.7 mg",1877 (55.7) μg/g
same,"Vancomycin concn, Aliquot 3","[1]; sample 8, subject E, day 9, oral 125 mg 4 times daily for 10 days, wet wt 61.5 mg",1920 (61.5) μg/g
same,"Vancomycin concn, Aliquot 2","[1]; sample 8, subject E, day 9, oral 125 mg 4 times daily for 10 days, wet wt 91.7 mg",1868 (91.7) μg/g
same,"Vancomycin concn, Aliquot 2","[1]; sample 9, subject F, day 9, oral 125 mg 4 times daily for 10 days, wet wt 68.4 mg",1964 (68.4) μg/g
same,"Vancomycin concn, Aliquot 3","[1]; sample 9, subject F, day 9, oral 125 mg 4 times daily for 10 days, wet wt 80.2 mg",1973 (80.2) μg/g
same,"Vancomycin concn, Aliquot 2","[1]; sample 10, subject D, day 10, oral 125 mg 4 times daily for 10 days, wet wt 34.7 mg",1947 (34.7) μg/g
same,"Vancomycin concn, Aliquot 3","[1]; sample 10, subject D, day 10, oral 125 mg 4 times daily for 10 days, wet wt 57.0 mg",1775 (57.0) μg/g
same,"Vancomycin concn, Aliquot 2","[1]; sample 11, subject D, day 11, oral 125 mg 4 times daily for 10 days, wet wt 62.7 mg",1801 (62.7) μg/g
same,"Vancomycin concn, Aliquot 3","[1]; sample 11, subject D, day 11, oral 125 mg 4 times daily for 10 days, wet wt 64.0 mg",1891 (64.0) μg/g
same,"Vancomycin concn, Aliquot 2","[1]; sample 12, subject F, day 11, oral 125 mg 4 times daily for 10 days, wet wt 47 mg",1920 (47) μg/g
same,"Vancomycin concn, Aliquot 3","[1]; sample 12, subject F, day 11, oral 125 mg 4 times daily for 10 days, wet wt 54.2 mg",1488 (54.2) μg/g
same,"Vancomycin concn, Aliquot 2","[1]; sample 14, subject F, day 12, oral 125 mg 4 times daily for 10 days, wet wt 60.8 mg",1162 (60.8) μg/g
same,"Vancomycin concn, Aliquot 3","[1]; sample 14, subject F, day 12, oral 125 mg 4 times daily for 10 days, wet wt 74.6 mg",1070 (74.6) μg/g
same,"Vancomycin concn, Aliquot 3","[1]; sample 15, subject D, day 12, oral 125 mg 4 times daily for 10 days, wet wt 59.4 mg",1200 (59.4) μg/g
same,"Vancomycin concn, Aliquot 2","[1]; sample 15, subject D, day 12, oral 125 mg 4 times daily for 10 days, wet wt 90.1 mg",1111 (90.1) μg/g
same,"Lyophilized samples, Vanco conc","[2]; sample 6, subject E, day 8, oral 125 mg 4 times daily for 10 days, aliquot 1, wt 31 mg","9,206 μg/g"
same,"Lyophilized samples, Vanco conc","[2]; sample 6, subject E, day 8, oral 125 mg 4 times daily for 10 days, aliquot 2, wt 58.2 mg","10,109 μg/g"
same,"Lyophilized samples, Vanco conc, Mean","[2]; sample 6, subject E, day 8, oral 125 mg 4 times daily for 10 days, mean of 2 aliquots","9,658 μg/g"
same,"Lyophilized samples, Vanco conc","[2]; sample 7, subject F, day 8, oral 125 mg 4 times daily for 10 days, aliquot 1, wt 44.6 mg","8,614 μg/g"
same,"Lyophilized samples, Vanco conc","[2]; sample 7, subject F, day 8, oral 125 mg 4 times daily for 10 days, aliquot 2, wt 28.2 mg","9,367 μg/g"
same,"Lyophilized samples, Vanco conc, Mean","[2]; sample 7, subject F, day 8, oral 125 mg 4 times daily for 10 days, mean of 2 aliquots","8,991 μg/g"
same,"Lyophilized samples, Vanco conc","[2]; sample 8, subject E, day 9, oral 125 mg 4 times daily for 10 days, aliquot 1, wt 28.7 mg","10,116 μg/g"
same,"Lyophilized samples, Vanco conc","[2]; sample 8, subject E, day 9, oral 125 mg 4 times daily for 10 days, aliquot 2, wt 39.4 mg","9,445 μg/g"
same,"Lyophilized samples, Vanco conc, Mean","[2]; sample 8, subject E, day 9, oral 125 mg 4 times daily for 10 days, mean of 2 aliquots","9,781 μg/g"
same,"Lyophilized samples, Vanco conc","[2]; sample 9, subject F, day 9, oral 125 mg 4 times daily for 10 days, aliquot 1, wt 26.7 mg","9,745 μg/g"
same,"Lyophilized samples, Vanco conc","[2]; sample 9, subject F, day 9, oral 125 mg 4 times daily for 10 days, aliquot 2, wt 43.3 mg","8,981 μg/g"
same,"Lyophilized samples, Vanco conc","[2]; sample 9, subject F, day 9, oral 125 mg 4 times daily for 10 days, aliquot 3, wt 60.8 mg","8,935 μg/g"
same,"Lyophilized samples, Vanco conc, Mean","[2]; sample 9, subject F, day 9, oral 125 mg 4 times daily for 10 days, mean of 3 aliquots","9,220 μg/g"
same,"Lyophilized samples, Vanco conc","[2]; sample 10, subject D, day 10, oral 125 mg 4 times daily for 10 days, aliquot 1, wt 41.2 mg","7,501 μg/g"
same,"Lyophilized samples, Vanco conc","[2]; sample 10, subject D, day 10, oral 125 mg 4 times daily for 10 days, aliquot 2, wt 75.3 mg","6,911 μg/g"
same,"Lyophilized samples, Vanco conc, Mean","[2]; sample 10, subject D, day 10, oral 125 mg 4 times daily for 10 days, mean of 2 aliquots","7,206 μg/g"
same,"Lyophilized samples, Vanco conc","[2]; sample 11, subject D, day 11, oral 125 mg 4 times daily for 10 days, aliquot 1, wt 51.9 mg","7,688 μg/g"
same,"Lyophilized samples, Vanco conc","[2]; sample 11, subject D, day 11, oral 125 mg 4 times daily for 10 days, aliquot 2, wt 36.8 mg","8,166 μg/g"
same,"Lyophilized samples, Vanco conc","[2]; sample 11, subject D, day 11, oral 125 mg 4 times daily for 10 days, aliquot 3, wt 30 mg","6,457 μg/g"
same,"Lyophilized samples, Vanco conc, Mean","[2]; sample 11, subject D, day 11, oral 125 mg 4 times daily for 10 days, mean of 3 aliquots","7,437 μg/g"
same,"Lyophilized samples, Vanco conc","[2]; sample 12, subject F, day 11, oral 125 mg 4 times daily for 10 days, aliquot 1, wt 12.7 mg","9,026 μg/g"
same,"Lyophilized samples, Vanco conc","[2]; sample 12, subject F, day 11, oral 125 mg 4 times daily for 10 days, aliquot 2, wt 32.6 mg","8,563 μg/g"
same,"Lyophilized samples, Vanco conc","[2]; sample 12, subject F, day 11, oral 125 mg 4 times daily for 10 days, aliquot 3, wt 49.2 mg","6,962 μg/g"
same,"Lyophilized samples, Vanco conc, Mean","[2]; sample 12, subject F, day 11, oral 125 mg 4 times daily for 10 days, mean of 3 aliquots","8,184 μg/g"
same,"Lyophilized samples, Vanco conc","[2]; sample 14, subject F, day 12, oral 125 mg 4 times daily for 10 days, aliquot 1, wt 19 mg","6,748 μg/g"
same,"Lyophilized samples, Vanco conc","[2]; sample 14, subject F, day 12, oral 125 mg 4 times daily for 10 days, aliquot 2, wt 37.1 mg","5,810 μg/g"
same,"Lyophilized samples, Vanco conc","[2]; sample 14, subject F, day 12, oral 125 mg 4 times daily for 10 days, aliquot 3, wt 56.2 mg","5,803 μg/g"
same,"Lyophilized samples, Vanco conc, Mean","[2]; sample 14, subject F, day 12, oral 125 mg 4 times daily for 10 days, mean of 3 aliquots","6,120 μg/g"
same,"Lyophilized samples, Vanco conc","[2]; sample 15, subject D, day 12, oral 125 mg 4 times daily for 10 days, aliquot 1, wt 41.6 mg","5,058 μg/g"
same,"Lyophilized samples, Vanco conc","[2]; sample 15, subject D, day 12, oral 125 mg 4 times daily for 10 days, aliquot 2, wt 38.5 mg","4,941 μg/g"
same,"Lyophilized samples, Vanco conc","[2]; sample 15, subject D, day 12, oral 125 mg 4 times daily for 10 days, aliquot 3, wt 44.1 mg","4,921 μg/g"
same,"Lyophilized samples, Vanco conc, Mean","[2]; sample 15, subject D, day 12, oral 125 mg 4 times daily for 10 days, mean of 3 aliquots","4,973 μg/g"
same,"Day 0, vancomycin concn",[3]; clinical stool sample 5,269 ± 3 µg/g
same,"Day 48, vancomycin concn",[3]; clinical stool sample 5,259 ± 14 µg/g
same,"Day 0, vancomycin concn",[3]; clinical stool sample 9,"1,897 ± 7 μg/g"
same,"Day 48, vancomycin concn",[3]; clinical stool sample 9,"1,905 ± 12 μg/g"
same,"Day 0, vancomycin concn",[3]; clinical stool sample 14,"1,211 ± 8 μg/g"
same,"Day 48, vancomycin concn",[3]; clinical stool sample 14,"1,220 ± 11 μg/g"
same,stability of vancomycin concentrations in stool over time,"[3]; clinical stool samples, up to 49 days studied",stable over time up to 49 days
same,"Fecal vancomycin concentration (Mean ± SD), Previous method","[4]; clinical sample 5, two aliquots",267 ± 45 µg/mL
same,"Fecal vancomycin concentration (Mean ± SD), Previous method","[4]; clinical sample 6, two aliquots","2,045±100 µg/ml"
same,"Fecal vancomycin concentration (Mean ± SD), Previous method","[4]; clinical sample 8, two aliquots","2,110±23 µg/ml"
same,"Fecal vancomycin concentration (Mean ± SD), Previous method","[4]; clinical sample 9, two aliquots","2,106±33 µg/ml"
same,"Fecal vancomycin concentration (Mean ± SD), Previous method","[4]; clinical sample 12, two aliquots","1,771±11 µg/ml"
same,"Fecal vancomycin concentration (Mean ± SD), Previous method","[4]; clinical sample 14, two aliquots","1,253±47 µg/ml"
same,water solubility (in words),[5],water-soluble
same,hydrophilicity (in words),"[5]; general statement of the discussion, no reference given",hydrophilic drug
same,typical fecal vancomycin level after standard oral vancomycin administration,[6],> 100 µg/mL
same,absorption from the human gastrointestinal (GI) tract (in words),"[6]; oral, mainly excreted into the stool",absorbed minimally
